Data from the NIST ThermoML archive (doi:10.1007/s10765-012-1371-1).
± gives the expanded uncertainty stated by the source.

Experiment: xn = mol fraction of the nth substance listed
Details: 101 kPa, Liquid

CCCCOCC [butyl ethyl ether] + CC(C)CCl
viscosity [mPa·s]
Details	283.15 K	288.15 K	293.15 K	298.15 K	303.15 K	308.15 K	313.15 K
x2 = 0	0.4796 ± 0.0091	0.4509 ± 0.0087	0.4242 ± 0.0083	0.399 ± 0.0079	0.3756 ± 0.0075	0.356 ± 0.0072	0.3416 ± 0.007
x2 = 0.0493	0.4797 ± 0.0091	0.4512 ± 0.0087	0.4246 ± 0.0083	0.3993 ± 0.0079	0.3762 ± 0.0075	0.3569 ± 0.0072	0.3423 ± 0.007
x2 = 0.1004	0.4799 ± 0.0091	0.4514 ± 0.0087	0.4248 ± 0.0083	0.3998 ± 0.0079	0.3771 ± 0.0076	0.3578 ± 0.0073	0.3432 ± 0.007
x2 = 0.2001	0.4812 ± 0.0091	0.4526 ± 0.0087	0.4259 ± 0.0083	0.4012 ± 0.0079	0.3793 ± 0.0076	0.3603 ± 0.0073	0.3455 ± 0.0071
x2 = 0.3012	0.4836 ± 0.0092	0.4548 ± 0.0087	0.4279 ± 0.0083	0.4035 ± 0.008	0.3822 ± 0.0076	0.3634 ± 0.0073	0.3481 ± 0.0071
x2 = 0.4021	0.4866 ± 0.0092	0.4574 ± 0.0088	0.4305 ± 0.0084	0.4063 ± 0.008	0.3855 ± 0.0077	0.3667 ± 0.0074	0.3511 ± 0.0072
x2 = 0.5025	0.4903 ± 0.0093	0.4609 ± 0.0088	0.4337 ± 0.0084	0.4097 ± 0.008	0.3893 ± 0.0077	0.3704 ± 0.0074	0.3543 ± 0.0072
x2 = 0.6007	0.4946 ± 0.0093	0.4649 ± 0.0089	0.4374 ± 0.0085	0.4133 ± 0.0081	0.3933 ± 0.0078	0.3745 ± 0.0075	0.3576 ± 0.0073
x2 = 0.6993	0.4994 ± 0.0094	0.4692 ± 0.0089	0.4412 ± 0.0085	0.4171 ± 0.0081	0.3975 ± 0.0078	0.3786 ± 0.0076	0.3612 ± 0.0073
x2 = 0.7994	0.5044 ± 0.0095	0.4736 ± 0.009	0.4453 ± 0.0086	0.4211 ± 0.0082	0.4021 ± 0.0079	0.3832 ± 0.0076	0.3649 ± 0.0074
x2 = 0.8993	0.5099 ± 0.0096	0.4783 ± 0.0091	0.4496 ± 0.0086	0.4253 ± 0.0083	0.4065 ± 0.008	0.3875 ± 0.0077	0.3687 ± 0.0074
x2 = 0.9491	0.5126 ± 0.0096	0.4808 ± 0.0091	0.4518 ± 0.0087	0.4274 ± 0.0083	0.4089 ± 0.008	0.3898 ± 0.0077	0.3706 ± 0.0075
